Data from patent US20250177339A1, “Methods for Treating Tauopathy” (BioJiva LLC, priority 2020, published 2025).
Entries after “also recorded” stand apart in the source; their conditions may differ.

Assays:
[1] = Pharmacokinetic sampling: ratio of D2-AA to AA in red blood cells of treated patients; format: in vivo, human
Experimental: (§1) Three patients diagnosed with likely PSP underwent baseline assessment using the 28-item Progressive Supranuclear Palsy Rating Scale (PSPRS) and the Unified Parkinson's Disease Rating Scale (UPDRS). They were then treated with D2-Lin (2.88 g BID; 5.76 g total daily dose) and observed for disease progression. The second patient had their dose increased (2.88 g TID; 8.64 g total daily dose) after the first year of treatment. During the treatment period, scores in the 2 rating scales were determined every 3 months. Pharmacokinetic (PK) sampling was performed at month 3. These analytes included plasma and RBC membrane levels of (D2-LA) and its centrally active metabolite D2-AA.
At 3 months, the following data was collected:
At 12 months, the following data was collected:
The above results evidence that a percent ratio of 11,11-D2-AA to AA in red blood cells of about 3% is necessary to achieve therapeutic results.

SROS MSCs [2] = assay: Mitochondrial shape in SROS MSCs; format: cell-based, human; details: pre-treatment
Experimental: (§2) The effect of D2-Lin on mesenchymal stem cells derived from patients with SROS was assessed using non-deuterated Lin as a control. MSC preparations from bone marrow aspirates from control subjects were compared to 3 subjects with SROS, following protocols described in Hill S., et al., Free Radic. Biol. Med. (2012) 53:893-906; and Cotticelli M G., et al., Redox Biol. (2013) 1:398-404.
Presynaptic terminals typically contain multiple mitochondria. Misshaped mitochondria can clog the pathways that transport them along neurons and through long axons and elaborate dendritic arbors. Mattson et al., Neuron (2009) 60:748-766. Accordingly, mitochondrial shape is another characteristic of mitochondrial health. Also, the communication pathway between ER and mitochondria through MAM is compromised in misshaped mitochondria, further disturbing protein folding, lipid metabolism, Ca^2+ homeostasis and apoptosis. Lee et al., Mol. Cells (2018) 41:1000-1007. Coincident with the improvements in MMP with D-PUFA incubation, the abnormalities of mitochondrial shape seen in SROS MSCs were improved with D-PUFA pre-treatment, resulting in more uniformly looking mitochondria.

[3] = test system: patients diagnosed with likely PSP; assay: Unified Parkinson's Disease Rating Scale (UPDRS) in treated patients; format: in vivo, human; details: three PSP patients; 2.88 g BID; after 3 months of therapy; expected increase 0.95 points/month; +/-0.41 SEM
Experimental: as §1
(§3) The three patients were 2 males ([…]) and one person each of whom had pre-treatment symptom duration of 6 years and 3 years for the two males and 2 years for the person. The baseline PSPRS for the two males was 17 and 12 respectively and 13 for the person. The baseline UPDRS for the two males was 44 and 36 respectively and 21 for the person.
(§4) After 3 months of therapy, the slope of the PSPRS changed from the historical decline of 0.91 points/month to a mean of decline of 0.16 points/month (+/−0.23 SEM). The UPDRS slope changed from an expected increase of 0.95 points/month to an average increase in score of 0.28 points/month (+/−0.41 SEM).

SROS MSCs [4] = assay: Rate of lipid peroxidation (BODIPY C11) in SROS/PSP MSCs; format: cell-based, human; details: 72-hour incubation; for rate of lipid peroxidation (LPO), in words: SROS/PSP MSCs, BODIPY C11
Experimental: as §2
(§5) LPO has been implicated as an early and pivotal factor in SROS. Specifically, increased levels of n-6 PUFA oxidation products such as 4-HNE were reported, as a direct consequence of the LPO chain reaction. Accordingly, the difference in basal MMP and ROS generation between control and the 3 cell lines of SROS MSCs was associated with increased rates of LPO, as detected by the LPO-specific probe, BODIPY C11.
(§6) MSC preparations from BM were obtained from control subjects and from the PSP subjects following previously described protocols. In short, MSCs were isolated from BM aspirates seeding 50,000 mononucleated cells/cm2 in αMEM (Thermo Fisher Scientific, Waltham, MA, USA) supplemented with 10% fetal bovine serum (FBS; Thermo Fisher Scientific), in T75 flasks. The cultures were incubated at 37° C., 20% O2, 5% CO2. Medium changes were performed twice a week. Two weeks after initial seeding, primary MSC colonies were detached with a 10-minute incubation at 37° C. with TrypLE Select Enzyme (Thermo Fisher Scientific) and replated at 4000 cells/cm^2 in the same medium. MSC identity was previously assessed. Subsequent passages were performed following the same steps. Passage 4-6 MSCs were used for all experiments. […]
(§7) Lipid peroxidation was measured using confocal microscopy (Zeiss 710 LSM with an integrated META detection system). The rate of lipid peroxidation was measured using C11-BODIPY 581/591 ([…]; Molecular probes) which was excited by the 488 and 543 nm laser line and fluorescence measured using a band-pass filter from 505 to 550 nm and 560 nm long-pass filter (40× oil-objective). […]

[5] = test system: MSCs derived from patients with SROS; assay: Mitochondrial health (morphology, number, function) of SROS MSCs; format: cell-based, human; details: incubation for 72 hours
Experimental: as §2
These include changes in mitochondrial morphology, number, and function.

SROS-MSCs = assay: Mitochondrial membrane potential (fluorescent indicator, TMRM) in SROS MSCs; format: cell-based, human; details: SROS cells from SROS patients; incubation for 72 hours
Experimental: as §2
(§8) MMP is an important indicator of mitochondrial health and is typically kept at […] values (100-140 mV). A long-lasting drop or rise of normal MMP levels may induce loss of cell viability and various pathologies. ROS and LPO levels are directly linked to MMP, and increase exponentially at MMP>140 mV. […]
(§9) MSC preparations from BM were obtained from control subjects and from the PSP subjects following previously described protocols. […] MSC identity was previously assessed. […]
(§10) For assessments of glutathione levels, the PSP-MSCs cultures were incubated with 50 μM monochlorobimane (MCB) (Molecular Probes, Invitrogen) for 40 minutes in HEPES buffered salt solution prior to imaging. Cells were then washed with HEPES buffered salt solution and images of the fluorescence of the MCB-GSH were acquired using a Zeiss 710 CLSM with excitation at 405 nm and emission at 435-485 nm. […] The fluorescence measurement was obtained by excitation with 561 nm laser and emission detected above 580 nm. […]

SROS MSCs [6] = assay: Glutathione level (monochlorobimane) in SROS/PSP MSCs; format: cell-based, human; details: for glutathione (GSH) level, in words: SROS/PSP MSCs, MCB intensity
Experimental: as §2
Glutathione-related machinery is the major mechanism involved with slowing down the inhibition/propagation the LPO chain as well as mopping up the toxic end products of LPO. Consumption of the endogenous antioxidant glutathione is an indirect measure of oxidative stress.
as §6
For assessments of glutathione levels, the PSP-MSCs cultures were incubated with 50 μM monochlorobimane (MCB) (Molecular Probes, Invitrogen) for 40 minutes in HEPES buffered salt solution prior to imaging. Cells were then washed with HEPES buffered salt solution and images of the fluorescence of the MCB-GSH were acquired using a Zeiss 710 CLSM with excitation at 405 nm and emission at 435-485 nm. Mitochondrial ROS generation rate was assessed using MitoTracker® Red CM-H2XRos (Thermo Fisher Scientific) which accumulates into mitochondria upon oxidation. The fluorescence measurement was obtained by excitation with 561 nm laser and emission detected above 580 nm. Mitochondrial membrane potential (ΔΨm) was assessed using 25 nM tetramethylrhodamine methyl ester (TMRM, Thermo Fisher Scientific) at 560 nm excitation and fluorescence was measured above 580 nm. Z-stack images were collected and the fluorescence intensity of TMRM was analyzed using Zen software (Zeiss). […]
Glutathione levels were measured using MCB. […]

SROS-MSC = assay: Mitochondrial DNA level (PicoGreen fluorescence in non-nuclear area) in SROS MSCs; format: cell-based, human; details: after 72 hours incubation, from 67.5% before, relative to control MSC 100%
Experimental: as §2
(§11) The number of mitochondria within the cells is regulated by the balance between mitochondrial biogenesis and mitophagy. Accordingly, for the normal maintenance of the mitochondrial balance, SROS-MSCs should activate mitochondrial biogenesis. […] Various factors, for example excessive fusion can result in a lower number of mitochondria in the cell, leading to impaired respiration, a lower production of ATP, and increased oxidative damage. Arun et al., Curr. Neuropharmacol. (2016) 14:143-154. However, after 72 hours incubation of the cells with D2-PUFAs mitochondrial DNA increased for both control and SROS MSCs.

[7] = test system: patients diagnosed with likely PSP; assay: Progressive Supranuclear Palsy Rating Scale (PSPRS) in treated patients; format: in vivo, human; details: three PSP patients; 2.88 g BID; after 3 months of therapy; historical decline 0.91 points/month; +/-0.23 SEM
Experimental: as §1, §3, §4

control MSC = assay: Mitochondrial DNA level (PicoGreen fluorescence in non-nuclear area) in control MSCs; format: cell-based, human; details: after 72 hours incubation, from 100% before
Experimental: as §2, §11

control MSCs [8] = assay: Rate of lipid peroxidation (BODIPY C11) in control MSCs; format: cell-based, human; details: 72-hour incubation
Experimental: as §2, §5
as §7, with “oil-objective). Illumination intensity was kept to a minimum (0.1-0.2% of laser output) to prevent phototoxicity and the pinhole was set to give an optical slice of […].” for “oil-objective).”

control MSCs [9] = assay: Mitochondrial membrane potential (fluorescent indicator, TMRM) in control MSCs; format: cell-based, human; details: incubation for 72 hours
Experimental: as §2, §8, §9, §10

SMILES	% ratio of 11,11-D2-AA to AA ([1]; Patient 1, evaluated at 4 months of D2-Lin treatment) [%]	% ratio of 11,11-D2-AA to AA ([1]; Patient 1, evaluated at 13 months of D2-Lin treatment) [%]	% ratio of 11,11-D2-AA to AA ([1]; Patient 2, at 3 months of D2-Lin treatment) [%]	% ratio of 11,11-D2-AA to AA ([1]; Patient 2, at 12 months of D2-Lin treatment) [%]	% ratio of 11,11-D2-AA to AA ([1]; Patient 3, at 3 months of D2-Lin treatment) [%]	% ratio of 11,11-D2-AA to AA ([1]; Patient 3, at 12 months of D2-Lin treatment) [%]	abnormalities of mitochondrial shape (SROS MSCs [2])	UPDRS slope, average increase in score [3] [points/month]	rate of lipid peroxidation (LPO) (SROS MSCs [4]; SROS MSCs, % of control, from 161.8% before, N=8) [%]	rate of lipid peroxidation (LPO), in words (SROS MSCs [4])	mitochondrial morphology, number, and function [5]	mitochondrial membrane potential (MMP) (SROS-MSCs)	glutathione (GSH) level, in words (SROS MSCs [6])	glutathione (GSH) level, in words (SROS MSCs [6]; listed as D2-PUFAs)	level of mitochondrial DNA (estimation of number of mitochondria) (SROS-MSC) [%]	slope of the PSPRS, mean decline [7] [points/month]	level of mitochondrial DNA (estimation of number of mitochondria) (control MSC) [%]	rate of LPO, % of the pre-treatment value (control MSCs [8]) [%]	mitochondrial membrane potential (MMP) (control MSCs [9])	glutathione levels less than those found in the D2-Lin test (SROS MSCs [6]; PSP MSCs, after incubation, compared with D2-Lin-incubated PSP MSCs)
[2H]C([2H])(/C=C\C/C=C\C/C=C\CCCC(=O)O)/C=C\CCCCC [13,13-D2-Arachadonic acid]	5.9	10.5	3.3	6.9	5	8.6														
[2H]C([2H])(/C=C\CCCCC)/C=C\CCCCCCCC(=O)O [D2-Lin, 11,11-D2-Linoleic acid]							improved	0.28	109.8	reversed; also recorded: restored the SROS MSCs to normal levels; also recorded: returned to normal levels	restores these parameters to control MSC levels	reduced	reversed; also recorded: restored to HC levels	significantly increased	105.4	0.16	109	84.3	no effect	
CCCCC/C=C\C/C=C\CCCCCCCC(=O)O [H2-LA, Non-deuterated linoleic acid, reference compound]										remained elevated at over two times that of the treated levels			remained low							about 30%
